Experimental data: patent US20250332173A1, “COMPOUNDS AND METHODS FOR MODULATING NUCLEIC ACID SPLICING” (REMIX THERAPEUTICS INC., priority 2021, published 2025)
pIC50: −log10 of the molar value. Where a name gives a salt, the structure may show the parent alone.

Columns and labels:
Assay type in all cases: cell-based, human
SMN2 mRNA = assay: RT-qPCR splicing assay, SMN2 canonical junction (CJ) mRNA; details: Homo sapiens; Table 5 panel; canonical junction qPCR; compound concentration having 50% response in CJ decrease; read-out: SMN2 IC50 (decrease in CJ mRNA levels)
How it was run: (§1)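 Canonical-junction transcript levels in compound-treated A673 or K562 cells (24 h, up to 10 uM final) were determined from lysates by RT-qPCR with housekeeping-gene normalization.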

Target C = assay: RT-qPCR splicing assay panel, Target C canonical junction (CJ) mRNA; details: Homo sapiens; Table 5 panel; canonical junction qPCR; compound concentration having 50% response in CJ decrease; read-out: Target C IC50 (decrease in CJ mRNA levels)
How it was run: as §1

MYB = assay: HiBiT protein abundance assay, MYB HiBiT K562 cell line; details: HiBiT K562 cell line, 24 hours, top dose 10 μM; read-out: Effect on protein abundance, MYB (IC50 category)
How it was run: (§2)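 Tagged-protein abundance measured by split-NanoBiT luminescence after lysis, following 24 h compound exposure (37° C; 10 μM top, 3-fold, 10 points; DMSO ≤0.25%) of HiBiT knock-in K562 cells. Percent response vs DMSO and unmodified-cell controls; 4-parameter logistic interpolation at 50% gave IC50.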

HTT = assay: HiBiT protein abundance assay, HTT HiBiT K562 cell line; details: HiBiT K562 cell line, 24 hours, top dose 10 μM; read-out: Effect on protein abundance, HTT (IC50 category)
How it was run: as §2

| pIC50 (SMN2 mRNA) | pIC50 (Target C) | pIC50 (MYB) | pIC50 (HTT) | Compound |
| --- | --- | --- | --- | --- |
| > 7.00 | 6.00 to 7.00 | 6.00 to 7.00 | > 7.00 | Cc1cn2nc(-c3cc(F)c4c(=O)n(C5CCN(CCF)CC5)ncc4c3)cc(C)c2n1 [Compound 538] |
| > 7.00 | 6.00 to 7.00 | > 7.00 | > 7.00 | Cc1cn2nc(-c3cc(F)c4c(=O)n(C5CCN(C)CC5)ncc4c3)cc(C)c2n1 [Compound 539] |
| > 7.00 | > 7.00 | > 7.00 | > 7.00 | Cc1cn2nc(-c3cc(F)c4c(=O)n(C5CCNCC5)ncc4c3)cc(C)c2n1 [Compound 540] |
| > 7.00 | > 7.00 | > 7.00 | > 7.00 | Cc1cn2nc(-c3cc(O)c4c(=O)n(C5CCNCC5)ncc4c3)cc(C)c2n1 [Compound 541] |
| > 7.00 | 6.00 to 7.00 | > 7.00 | > 7.00 | CCN1CCC(n2ncc3cc(-c4cc(C)c5nc(C)cn5n4)cc(O)c3c2=O)CC1 [Compound 542] |
| > 7.00 | 6.00 to 7.00 | 6.00 to 7.00 | > 7.00 | Cc1cn2nc(-c3cc(O)c4c(=O)n(C5CCN(C)CC5)ncc4c3)cc(C)c2n1 [Compound 543] |
| > 7.00 | > 7.00 | > 7.00 | > 7.00 | Cc1cn2nc(-c3ccc4c(=O)n(C5CCNCC5)ccc4c3)cc(Oc3ccccc3F)c2n1 [Compound 544, 6-[8-(2-fluorophenoxy)-2-methyl-imidazo[1,2-b]pyridazin-6-yl]-2-(4-piperidyl) isoquinolin-1-one; hydrochloride] |
| > 7.00 | > 7.00 | > 7.00 | > 7.00 | Cc1cn2nc(-c3ccc4c(=O)n(C5CCNCC5)ccc4c3)cc(Oc3cccc(F)c3)c2n1 [Compound 545, 6-[8-(3-fluorophenoxy)-2-methyl-imidazo[1,2-b]pyridazin-6-yl]-2-(4-piperidyl)isoquinolin-1-one; hydrochloride] |
| > 7.00 | > 7.00 | > 7.00 | > 7.00 | Cc1cn2nc(-c3ccc4c(=O)n(C5CCNCC5)ccc4c3)cc(Oc3ccc(F)cc3)c2n1 [Compound 546, 6-[8-(4-fluorophenoxy)-2-methyl-imidazo[1,2-b]pyridazin-6-yl]-2-(4-piperidyl) isoquinolin-1-one; hydrochloride] |
| > 7.00 | > 7.00 | > 7.00 | > 7.00 | COc1cccc(Oc2cc(-c3ccc4c(=O)n(C5CCNCC5)ccc4c3)nn3cc(C)nc23)c1 [Compound 547, 6-[8-(3-methoxyphenoxy)-2-methyl-imidazo[1,2-b]pyridazin-6-yl]-2-(4 piperidyl) isoquinolin-1-one] |
| > 7.00 | > 7.00 | > 7.00 | > 7.00 | Cc1cn2nc(-c3cc(F)c4c(=O)n(C5CCNCC5)ncc4c3)cc(Oc3ccccc3)c2n1 [Compound 548, 8-fluoro-6-(2-methyl-8-phenoxy-imidazo[1,2-b]pyridazin-6-yl)-2-(4-piperidyl)phthala-zin-1-one] |
| > 7.00 | 6.00 to 7.00 | > 7.00 | > 7.00 | Cc1cn2nc(-c3ccc4c(=O)n(C5CCNCC5)ncc4c3)cc(Oc3ccccc3)c2n1 [Compound 549, 6-(2-methyl-8-phenoxy-imidazo[1,2-b]pyridazin-6-yl)-2-(4-piperidyl) phthalazin-1-one] |
| > 7.00 | > 7.00 | > 7.00 | > 7.00 | Cc1cn2nc(-c3ccc4c(=O)n(C5CCNCC5)ccc4c3)cc(Oc3cccnc3)c2n1 [Compound 550, 6-[2-methyl-8-(3-pyridyloxy)imidazo[1,2-b]pyridazin-6-yl]-2-(4-piperidyl)isoquinolin-1-one] |
| 6.00 to 7.00 | 6.00 to 7.00 | 6.00 to 7.00 | 6.00 to 7.00 | Cc1cn2nc(-c3ccc4c(=O)n(C5CCNCC5)ccc4c3)cc(-n3ccc(=O)cc3)c2n1 [Compound 551, 6-[2-methyl-8-(4-oxo-1-pyridyl)imidazo[1,2-b]pyridazin-6-yl]-2-(4-piperidyl)isoquinolin-1-one] |
| < 5.00 | < 5.00 | 5.00 to 6.00 | < 5.00 | Cc1cn2nc(-c3ccc4c(=O)n(C5CCNCC5)ccc4c3)cc(-n3ccccc3=O)c2n1 [Compound 552, 6-[2-methyl-8-(2-oxo-1-pyridyl)imidazo[1,2-b]pyridazin-6-yl]-2-(4-piperidyl)isoquinolin-1-one] |
| > 7.00 | 6.00 to 7.00 | 6.00 to 7.00 | > 7.00 | Cc1cn2nc(-c3cc(O)c4c(=O)n(C5CCN(CCF)CC5)ncc4c3)cc(C)c2n1 [Compound 553] |

| pIC50 (SMN2 mRNA) | pIC50 (Target C) | pIC50 (MYB) | pIC50 (HTT) | Compound |
| --- | --- | --- | --- | --- |
| > 7.00 | 6.00 to 7.00 | 6.00 to 7.00 | > 7.00 | Cc1cc(-c2cc(F)c3c(=O)n(C4CCNC5(CC5)C4)ncc3c2)cc2cn(C)nc12 (centres unmarked) [Compound 554] |
| > 7.00 | 6.00 to 7.00 | 6.00 to 7.00 | > 7.00 | Cc1nc2c(C)cc(-c3cc(F)c4c(=O)n(C5CCNC6(CC6)C5)ncc4c3)cc2o1 (centres unmarked) [Compound 555] |
| > 7.00 | 5.00 to 6.00 | 6.00 to 7.00 | > 7.00 | Cc1cn2cc(-c3cc(F)c4c(=O)n(C5CCNC6(CC6)C5)ncc4c3)cc(Cl)c2n1 (centres unmarked) [Compound 556] |
| > 7.00 | 5.00 to 6.00 | 6.00 to 7.00 | > 7.00 | Cc1cn2cc(-c3cc(O)c4c(=O)n(C5CCNC6(CC6)C5)ncc4c3)cc(Cl)c2n1 (centres unmarked) [Compound 557] |
| > 7.00 | 5.00 to 6.00 | 6.00 to 7.00 | 6.00 to 7.00 | CCc1cn(C2CCNCC2)c(=O)c2c(F)cc(-c3cc(F)c4nc(C)cn4c3)cc12 [Compound 558, 4-ethyl-8-fluoro-6-{8-fluoro-2-methylimidazo[1,2-a]pyridin-6-yl}-2-(piperidin-4-yl)isoquinolin-1-one] |
| > 7.00 | 6.00 to 7.00 | > 7.00 | > 7.00 | C=Cc1cn(C2CCNCC2)c(=O)c2c(F)cc(-c3cc(F)c4nc(C)cn4c3)cc12 [Compound 559, 4-ethenyl-8-fluoro-6-{8-fluoro-2-methylimidazo[1,2-a]pyridin-6-yl}-2-(piperidin-4-yl)isoquinolin-1-one] |
| > 7.00 | 5.00 to 6.00 | 6.00 to 7.00 | 6.00 to 7.00 | Cc1cn2cc(-c3ccc4c(=O)n(C5CCNCC5)ccc4c3)cc(C#N)c2n1 [Compound 560, 2-methyl-6-[1-oxo-2-(piperidin-4-yl)isoquinolin-6-yl]imidazo[1,2-a]pyridine-8-carbonitrile] |
| 6.00 to 7.00 | 5.00 to 6.00 | 6.00 to 7.00 | 6.00 to 7.00 | Cc1cc(-c2cc(O)c3c(=O)n(C4CCNC5(CC5)C4)ncc3c2)cc2cn(C)nc12 (centres unmarked) [Compound 561] |
| 6.00 to 7.00 | 5.00 to 6.00 | 5.00 to 6.00 | 5.00 to 6.00 | Cc1cn2nc(-c3cc4ncn(C5CCNCC5)c(=O)c4cc3F)cc(C)c2n1 [Compound 585, 7-{2,8-dimethylimidazo[1,2-b]pyridazin-6-yl}-6-fluoro-3-(piperidin-4-yl)quinazolin-4-one] |
| > 7.00 | 5.00 to 6.00 | 6.00 to 7.00 | 6.00 to 7.00 | Cc1cn2cc(-c3cc4ncn(C5CCNCC5)c(=O)c4cc3F)cc(F)c2n1 [Compound 586, 6-fluoro-7-{8-fluoro-2-methylimidazo[1,2-a]pyridin-6-yl}-3-(piperidin-4-yl)quinazolin-4-one] |
| > 7.00 | 6.00 to 7.00 | > 7.00 | 6.00 to 7.00 | Cc1cn2cc(-c3cc(O)c4c(=O)n(C5CCNCC5)cnc4c3)cc(F)c2n1 [Compound 587, 7-{8-fluoro-2-methylimidazo[1,2-a]pyridin-6-yl}-5-hydroxy-3-(piperidin-4-yl)quinazolin-4-one] |
| > 7.00 | 6.00 to 7.00 | 6.00 to 7.00 | 5.00 to 6.00 | Cc1cn2cc(-c3cc(F)c4c(=O)n(C5CCNCC5)cnc4c3)cc(C#N)c2n1 [Compound 588] |
| 6.00 to 7.00 | < 5.00 | 5.00 to 6.00 | 5.00 to 6.00 | Cc1cn2nc(-c3cc(F)c4c(=O)n(C5CCNC5)cnc4c3)cc(C)c2n1 (centres unmarked) [Compound 589, 7-{2,8-dimethylimidazo[1,2-b]pyridazin-6-yl}-5-fluoro-3-(pyrrolidin-3-yl)quinazolin-4-one] |
| > 7.00 | > 7.00 | > 7.00 | > 7.00 | Cc1cn2nc(-c3cc(F)c4c(=O)n([C@@H]5CCN(C)C6(CC6)C5)ncc4c3)cc(C)c2n1 [Compound 637] |
| > 7.00 | > 7.00 | 6.00 to 7.00 | > 7.00 | Cc1cn2nc(-c3cc(F)c4c(=O)n([C@H]5CCN(C)C6(CC6)C5)ncc4c3)cc(C)c2n1 [Compound 638] |
| > 7.00 | 5.00 to 6.00 | > 7.00 | 5.00 to 6.00 | Cc1cn2nc(-c3cc4ccn([C@@H]5CCNC5)c(=O)c4cc3O)cc(C)c2n1 [Compound 640, 6-(2,8-dimethylimidazo[1,2-b]pyridazin-6-yl)-7-hydroxy-2-[(3R)-pyrrolidin-3-yl]isoquinolin-1-one] |
